How the values were obtained:
[1] = target: SERT; conditions: literature; cited from earlier work
[2] = Biodistribution of labeled radioligands in male Sprague-Dawley rats; format: in vivo; conditions: mean ± SD, n = 3
Procedure, shortened: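 C-11-labeled compounds given to male Sprague-Dawley rats; cerebellum, hippocampus, striatum, frontal cortex, thalamus, hypothalamus, blood and tail excised, weighed and gamma-counted. Decay- and tail-corrected activity expressed as % injected dose against C-11 standards from the injection solution, and as % ID/g from tissue weights.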

[3] = Experiment 5: plasma clearance of ^11C and ^18F labeled AFM, AFA, AFE in one baboon; format: in vivo; conditions: one adult male baboon, n = 1 to 4 scans
Description: General scanning methods were as described in Huang et al. (2002). Arterial input function was measured and corrected for metabolites.

[4] = tested on: SERT; test: Experiment 5: PET brain imaging of ^11C and ^18F labeled AFM, AFA, AFE in one baboon; format: in vivo; conditions: one adult male baboon, n = 1 to 4 scans, two-compartment model
Procedure, shortened: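 Baboon PET with metabolite-corrected arterial input function, fitted to a two-compartment model to give regional VT (mL/g). Cerebellum VT was taken as nonspecific distribution. V3″ = ROI VT / cerebellum VT − 1.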

[5] = tested on: SERT; conditions: same baboon, one tissue compartment model
Description: The animal was then injected with [^18F]AFM (2.60 mCi, 425 Ci/mmol, 1.51 μg) and scanned for 90 minutes. Analysis of the input function and brain uptake was performed as described in the previous section. […] Arterial activity was corrected for parent fraction to form the input function.
Data were analyzed with a one tissue compartment model.

[6] = Experiment 4: plasma analysis, [^11C]AFM and [^18F]AFM in the same baboon
Description: The animal was then injected with [^18F]AFM (2.60 mCi, 425 Ci/mmol, 1.51 μg) and scanned for 90 minutes. […] Arterial activity was corrected for parent fraction to form the input function.

CN(C)Cc1ccccc1Sc1ccc(C#N)cc1N [[^11C]DASB]
Kd [1]: 1.1 nM

CN([11CH3])Cc1ccccc1Sc1ccc(CF)cc1N [[^11C]AFM, [^11C]2-[2-(Dimethylaminomethyl)phenylthio]-5-fluoromethylphenylamine]
% ID/g Blood ([2]; 10 min post-injection): 0.37 ± 0.28 % ID/g
% ID/g Cerebellum ([2]; 10 min post-injection): 0.40 ± 0.06 % ID/g
% ID/g Frontal Ctx. ([2]; 10 min post-injection): 0.99 ± 0.25 % ID/g
% ID/g Hippocamp. ([2]; 10 min post-injection): 0.59 ± 0.14 % ID/g
% ID/g Hypothal. ([2]; 10 min post-injection): 0.75 ± 0.19 % ID/g
% ID/g Striatum ([2]; 10 min post-injection): 0.72 ± 0.17 % ID/g
% ID/g Thalamus ([2]; 10 min post-injection): 0.79 ± 0.15 % ID/g
% ID/g Blood ([2]; 30 min post-injection): 0.28 ± 0.01 % ID/g
% ID/g Cerebellum ([2]; 30 min post-injection): 0.41 ± 0.11 % ID/g
% ID/g Frontal Ctx. ([2]; 30 min post-injection): 1.31 ± 0.28 % ID/g
% ID/g Hippocamp. ([2]; 30 min post-injection): 0.95 ± 0.29 % ID/g
% ID/g Hypothal. ([2]; 30 min post-injection): 1.37 ± 0.48 % ID/g
% ID/g Striatum ([2]; 30 min post-injection): 1.12 ± 0.21 % ID/g
% ID/g Thalamus ([2]; 30 min post-injection): 1.18 ± 0.30 % ID/g
% ID/g Blood ([2]; 60 min post-injection): 0.19 ± 0.03 % ID/g
% ID/g Cerebellum ([2]; 60 min post-injection): 0.21 ± 0.04 % ID/g
% ID/g Frontal Ctx. ([2]; 60 min post-injection): 1.37 ± 0.10 % ID/g
% ID/g Hippocamp. ([2]; 60 min post-injection): 0.84 ± 0.10 % ID/g
% ID/g Hypothal. ([2]; 60 min post-injection): 1.27 ± 0.16 % ID/g
% ID/g Striatum ([2]; 60 min post-injection): 1.02 ± 0.15 % ID/g
% ID/g Thalamus ([2]; 60 min post-injection): 1.29 ± 0.22 % ID/g
Clearance [3]: 47 ± 11 L/h
Cerebellum V (nonspecific distribution volume) [4]: 32 ± 6 mL/g
Thalamus V3″ [5]: 2.26
Clearance of the parent compound [6]: 31 L/h
Percent plasma activity corresponding to the parent compound ([6]; 2 minutes): 75.6%
Percent plasma activity corresponding to the parent compound ([6]; 4 minutes): 55.4%
Percent plasma activity corresponding to the parent compound ([6]; 12 minutes): 21.4%
Percent plasma activity corresponding to the parent compound ([6]; 30 minutes): 9.4%
Percent plasma activity corresponding to the parent compound ([6]; 60 minutes): 6.4%
Percent plasma activity corresponding to the parent compound ([6]; 90 minutes): 6.7%
